From ChEMBL document CHEMBL4483862, “Open-source discovery of chemical leads for next-generation chemoprotective antimalarials” (2018)

Tested on: Plasmodium berghei
Experiment: Luciferase/luciferin-expressing antifolate-resistant parasites were used to infect a culture of HepG2 cells that were pre-incubated with compounds. Infected hepatocytes emit light due to the luciferase reaction. Assay results are presented as the percent inhibition of light emission compared to control. […]
Assay type: functional
Conditions: sporozoite; for IC90: read-out: LUCIFERASE INFECTION ASSAY - IC90

SMILES | IC90 [µM] | other results
O=C(O)COc1cc(-c2ccccc2)nc2ccccc12 | 4.53 | IC50 (HEPG2TOX_HILL_SLOPE 2.22, HEPG2TOX_R_SQUARED 0.747, PBLUC_HILL_SLOPE 12.7, PBLUC_R_SQUARED 0.342, read-out: LUCIFERASE INFECTION ASSAY - IC50): 3.81 µM
Oc1ccc(-c2cnc3cnc(-c4ccc(Cl)cc4)cn23)cc1 | 4.61 | IC50 (HEPG2TOX_HILL_SLOPE 2.24, HEPG2TOX_R_SQUARED 0.991, PBLUC_HILL_SLOPE 6.34, PBLUC_R_SQUARED 0.684, read-out: LUCIFERASE INFECTION ASSAY - IC50): 3.26 µM
CCC(C)NC(=O)c1c(NC(=O)c2cc(OC)cc(OC)c2)nc2ccc(C)cn12 (stereo not given) | 2.79 | IC50 (HEPG2TOX_HILL_SLOPE 2.24, HEPG2TOX_R_SQUARED 0.668, PBLUC_HILL_SLOPE 45.5, PBLUC_R_SQUARED 0.204, read-out: LUCIFERASE INFECTION ASSAY - IC50): 2.66 µM
CS(=O)(=O)c1ccc(CN2CCN3C(C(=O)Nc4ccc(F)c(Cl)c4)=COC3=NC2=O)cc1 | > 10 | IC50 (HEPG2TOX_HILL_SLOPE 2.2, HEPG2TOX_R_SQUARED 0.936, PBLUC_HILL_SLOPE 1.17, PBLUC_R_SQUARED 0.243, read-out: LUCIFERASE INFECTION ASSAY - IC50): > 10 µM
O=C(Nc1cccc(C(F)(F)F)c1)Nc1ncc([N+](=O)[O-])s1 | 2.73 | IC50 (HEPG2TOX_HILL_SLOPE 2.24, HEPG2TOX_R_SQUARED 0.981, PBLUC_HILL_SLOPE 1.72, PBLUC_R_SQUARED 0.576, read-out: LUCIFERASE INFECTION ASSAY - IC50): 0.759 µM
CCCCn1nc(C(=O)NNC(=O)Nc2ccc([N+](=O)[O-])cc2)c2ccccc2c1=O | > 10 | IC50 (HEPG2TOX_HILL_SLOPE 2.25, HEPG2TOX_R_SQUARED 0.286, read-out: LUCIFERASE INFECTION ASSAY - IC50): > 10 µM
Cc1ccsc1/C=N/Nc1ccc([N+](=O)[O-])cc1S(=O)(=O)Nc1ccc(Cl)cc1 | 3.77 | IC50 (HEPG2TOX_HILL_SLOPE 2.24, HEPG2TOX_R_SQUARED 0.991, PBLUC_HILL_SLOPE 12.9, PBLUC_R_SQUARED 0.191, read-out: LUCIFERASE INFECTION ASSAY - IC50): 3.18 µM
Clc1ccc(SCc2cc(N3CCCC3)nc(-c3ccccn3)n2)cc1 | 2.94 | IC50 (HEPG2TOX_HILL_SLOPE 2.23, HEPG2TOX_R_SQUARED 0.944, PBLUC_HILL_SLOPE 20.5, PBLUC_R_SQUARED 0.394, read-out: LUCIFERASE INFECTION ASSAY - IC50): 2.64 µM
Cc1ccc2nc(NC(=O)c3cc(F)ccc3F)c(C(=O)NC3CCCC3)n2c1 | 3 | IC50 (HEPG2TOX_HILL_SLOPE 2.24, HEPG2TOX_R_SQUARED 0.919, PBLUC_HILL_SLOPE 5.13, PBLUC_R_SQUARED 0.447, read-out: LUCIFERASE INFECTION ASSAY - IC50): 1.96 µM
O=C(Nc1nc2ccccn2c1C(=O)NC1CCCC1)c1cc(F)ccc1F | 6.63 | IC50 (HEPG2TOX_HILL_SLOPE 2.22, HEPG2TOX_R_SQUARED 0.565, PBLUC_HILL_SLOPE 4.18, PBLUC_R_SQUARED 0.45, read-out: LUCIFERASE INFECTION ASSAY - IC50): 3.92 µM
Cc1ccn2cc(C(=O)N3CCN(Cc4ccc(C(F)(F)F)cc4)CC3)nc2c1 | 3.77 | IC50 (HEPG2TOX_HILL_SLOPE 2.22, HEPG2TOX_R_SQUARED 0.687, PBLUC_HILL_SLOPE 18.4, PBLUC_R_SQUARED 0.747, read-out: LUCIFERASE INFECTION ASSAY - IC50): 3.35 µM
c1ccc2cc(-c3cc4ccccc4[nH]3)ccc2c1 | > 13.6 | IC50 (HEPG2TOX_HILL_SLOPE 2.23, HEPG2TOX_R_SQUARED 0.773, PBLUC_HILL_SLOPE 13.6, PBLUC_R_SQUARED 0.0646, read-out: LUCIFERASE INFECTION ASSAY - IC50): 12.2 µM
CC(=O)O[C@H]1C[C@@H](O[C@@H]2C(C)O[C@H](O[C@@H]3C(C)O[C@@H](O[C@H]4CC[C@@]5(C)C(CCC6C5C[C@@H](O)[C@]5(C)[C@@H](C7=CC(=O)OC7)CC[C@]65O)C4)C[C@@H]3O)C[C@@H]2O)OC(C)[C@H]1O[C@@H]1O[C@H](CO)[C@@H](O)[C@H](O)[C@H]1O (stereo not given in full) | > 3.35 | IC50 (HEPG2TOX_HILL_SLOPE 2.2, HEPG2TOX_R_SQUARED 0.634, PBLUC_HILL_SLOPE 2.28, PBLUC_R_SQUARED 0.618, read-out: LUCIFERASE INFECTION ASSAY - IC50): 1.57 µM
COc1ccc(-n2ncc(C(=O)Nc3nc(-c4ccc5ccccc5c4)cs3)c2C(F)(F)F)nn1 | 2.93 | IC50 (HEPG2TOX_HILL_SLOPE 2.25, 10.1, HEPG2TOX_R_SQUARED 0.989, 0.350, PBLUC_HILL_SLOPE 1.53, 1.53, PBLUC_R_SQUARED 0.682, 0.949, read-out: LUCIFERASE INFECTION ASSAY - IC50): 0.695 µM
N#CC(C(=O)c1ccc(Br)s1)c1nc2ccccc2s1 (stereo not given) | 3.8 | IC50 (HEPG2TOX_HILL_SLOPE 2.2, HEPG2TOX_R_SQUARED 0.729, PBLUC_HILL_SLOPE 11.3, 11.3, PBLUC_R_SQUARED 0.872, 0.879, read-out: LUCIFERASE INFECTION ASSAY - IC50): 3.13 µM
Cn1c(-c2ccccc2)nc2cnc(-c3cccc(Cl)c3)cc21 | 3.69 | IC50 (HEPG2TOX_HILL_SLOPE 2.23, HEPG2TOX_R_SQUARED 0.754, PBLUC_HILL_SLOPE 11.6, PBLUC_R_SQUARED 0.591, read-out: LUCIFERASE INFECTION ASSAY - IC50): 3.06 µM
COc1cccc(-c2cc3c(Nc4cccc(C(C)C)c4)nccc3[nH]2)c1 | 2.26 | IC50 (HEPG2TOX_HILL_SLOPE 2.2, HEPG2TOX_R_SQUARED 0.959, PBLUC_HILL_SLOPE 4.36, PBLUC_R_SQUARED 0.354, read-out: LUCIFERASE INFECTION ASSAY - IC50): 1.36 µM
O=C(Nc1ccccc1C(=O)Nc1nc2ccccc2[nH]1)c1cccs1 | > 10 | IC50 (HEPG2TOX_HILL_SLOPE 2.23, HEPG2TOX_R_SQUARED 0.95, read-out: LUCIFERASE INFECTION ASSAY - IC50): > 10 µM
COc1ccccc1NC(=O)/C=c1\s/c(=C\c2ccc(-c3ccccc3F)o2)c(=O)n1C | 3.75 | IC50 (HEPG2TOX_HILL_SLOPE 2.21, HEPG2TOX_R_SQUARED 0.937, PBLUC_HILL_SLOPE 21.9, PBLUC_R_SQUARED 0.468, read-out: LUCIFERASE INFECTION ASSAY - IC50): 3.39 µM
CN(CC(=O)Nc1ccc(Cl)c(C(F)(F)F)c1)c1nc(CN2CCCCC2)nc2sc3c(c12)CCCC3 | 9.99 | IC50 (HEPG2TOX_HILL_SLOPE 2.23, HEPG2TOX_R_SQUARED 0.93, PBLUC_HILL_SLOPE 4.09, PBLUC_R_SQUARED 0.44, read-out: LUCIFERASE INFECTION ASSAY - IC50): 5.84 µM
OCc1ccc(-c2cn3c(-c4ccc5ncccc5c4)cnc3cn2)cc1 | 3.45 | IC50 (HEPG2TOX_HILL_SLOPE 2.22, HEPG2TOX_R_SQUARED 0.955, PBLUC_HILL_SLOPE 5.03, PBLUC_R_SQUARED 0.612, read-out: LUCIFERASE INFECTION ASSAY - IC50): 2.23 µM
CC(Sc1nc(-c2ccccc2)c(-c2ccccc2)o1)C(=O)N1CCCC1 (stereo not given) | 1.48 | IC50 (HEPG2TOX_HILL_SLOPE 2.22, HEPG2TOX_R_SQUARED 0.0759, PBLUC_HILL_SLOPE 15.7, PBLUC_R_SQUARED 0.556, read-out: LUCIFERASE INFECTION ASSAY - IC50): 1.29 µM
Cc1cccc(Nc2nc(S(=O)(=O)c3ccc(Cl)cc3)c(Cl)s2)c1 | > 10 | IC50 (HEPG2TOX_HILL_SLOPE 2.2, HEPG2TOX_R_SQUARED 0.986, PBLUC_HILL_SLOPE 2.95, PBLUC_R_SQUARED 0.805, read-out: LUCIFERASE INFECTION ASSAY - IC50): 5.17 µM
COc1cc(OC)c(C(=O)/C=C/c2cccc(C#N)c2)cc1Cl | 4.08 | IC50 (HEPG2TOX_HILL_SLOPE 2.22, HEPG2TOX_R_SQUARED 0.565, PBLUC_HILL_SLOPE 10.9, PBLUC_R_SQUARED 0.489, read-out: LUCIFERASE INFECTION ASSAY - IC50): 3.33 µM
COc1ccccc1CNc1ccnc2cc(Cl)ccc12 | 3.82 | IC50 (HEPG2TOX_HILL_SLOPE 2.2, HEPG2TOX_R_SQUARED 0.908, PBLUC_HILL_SLOPE 13.6, PBLUC_R_SQUARED 0.424, read-out: LUCIFERASE INFECTION ASSAY - IC50): 3.25 µM
O=C(c1ccccc1)C1(c2nc3ccccc3s2)Sc2ccccc2C1=O (stereo not given) | 7.72 | IC50 (HEPG2TOX_HILL_SLOPE 2.24, HEPG2TOX_R_SQUARED 0.913, PBLUC_HILL_SLOPE 6.06, PBLUC_R_SQUARED 0.741, read-out: LUCIFERASE INFECTION ASSAY - IC50): 5.37 µM
O=C(CN(Cc1ccccc1)S(=O)(=O)c1ccc(Cl)cc1)Nc1nnc(C(F)(F)F)s1 | 3.96 | IC50 (HEPG2TOX_HILL_SLOPE 2.23, HEPG2TOX_R_SQUARED 0.869, PBLUC_HILL_SLOPE 13.4, PBLUC_R_SQUARED 0.351, read-out: LUCIFERASE INFECTION ASSAY - IC50): 3.37 µM
c1csc(-c2cnc3ccc(-c4ccc5c(c4)OCO5)nn23)c1 | > 10 | IC50 (HEPG2TOX_HILL_SLOPE 2.2, HEPG2TOX_R_SQUARED 0.859, PBLUC_HILL_SLOPE 2.18, PBLUC_R_SQUARED 0.249, read-out: LUCIFERASE INFECTION ASSAY - IC50): 4.56 µM
Clc1cccc(CNc2ncnc3sccc23)c1 | 9.83 | IC50 (HEPG2TOX_HILL_SLOPE 2.22, HEPG2TOX_R_SQUARED 0.937, PBLUC_HILL_SLOPE 2.28, PBLUC_R_SQUARED 0.461, read-out: LUCIFERASE INFECTION ASSAY - IC50): 3.76 µM
O=c1[nH]n(-c2ccc(Cl)c(Cl)c2)cc1-c1cccc(Cl)c1 | 5.52 | IC50 (HEPG2TOX_HILL_SLOPE 2.22, HEPG2TOX_R_SQUARED 0.951, PBLUC_HILL_SLOPE 6.3, PBLUC_R_SQUARED 0.659, read-out: LUCIFERASE INFECTION ASSAY - IC50): 3.89 µM
